Data reported in patent US9273084B2, “Moenomycin analogs, methods of synthesis, and uses thereof” (priority 2012, dated 2016).
Counter-ions that a name gives are not always drawn.

Columns and labels:
[1] = test system: E. coli MG1655; experiment: MIC assay, 96 well broth dilution with MTT staining; type: cell-based; set-up: unit not given beside the values; conditions: LB, 35-37° C., 20 h
Experimental: (§1) A 96 well plate with 100 μL test medium in all wells was prepared by handheld multipipettor. A stock solution of the antibiotic or compound in DMSO (0.05˜10 mg/mL, 5 μL) and the same medium (95 μL) were put together into column one, where the compound concentration doubled the highest one to be tested. Two columns were necessary for each compound to check the reproducibility. The compound was diluted by adding 100 μL from column one to column two with a 50% volume mix done three times; diluting serially across the plate was continued.
(§2) The day before the assay was scheduled to be run, strains were suspended in the test media (Brain Heart Infusion (BHI) containing 0.1% casamino acids for S. aureus, S. epidermidis, and E. faecalis, Trypticase Soy Broth (TSB) containing 5% sheep blood for S. pneumoniae, and Lysogeny Broth (LB) for E. coli) and incubated overnight at 35-37° C. The suspension was diluted with the same media to 1%, 100 μL of which was added to each well of the MIC plate. The MIC plate was incubated at 35-37° C. for 20 h. A thiazolyl blue tetrazolium bromide (MTT) solution (1 mg/mL-water, 50 μL) was added into each well and the resulting MIC plate was incubated at 35-37° C. for a few hours to stain wells in which cell proliferated. Growth is also visible as any turbidity in wells.

[2] = test system: S. aureus 13709; experiment: as above; type: cell-based; set-up: unit not given beside the values; conditions: BHI containing 0.1% casamino acids, 35-37° C., 20 h
Experimental: as §1, §2

[3] = test system: S. aureus 25923; experiment: as above; type: cell-based; set-up: unit not given beside the values; conditions: S. aureus 25923 (second strain line); BHI containing 0.1% casamino acids; 35-37° C., 20 h
Experimental: as §1, §2

[4] = test system: E. coli NR698; type: cell-based; set-up: unit not given beside the values; conditions: LB, 35-37° C., 20 h
Experimental: as §1, §2

[5] = Pharmacokinetics following IV and SC administration; type: in vivo; conditions: for half-life: NCA analysis
Experimental: Curtailing the tail portion of Moenomycin A (MmA) led to shorter half-life. […] The clearance following IV administration was very low leading higher exposure (3 mL/hr/kg) and volume of distribution (Vss) was 0.5 L/kg.

[6] = test system: Gram-positive organisms; conditions: against Gram-positive organisms; cited from earlier work
[7] = test system: E. faecalis 29212; experiment: MIC assay, 96 well broth dilution with MTT staining; type: cell-based; set-up: unit not given beside the values; conditions: BHI containing 0.1% casamino acids, 35-37° C., 20 h
Experimental: as §1, §2

[8] = test system: E. faecalis 33186; experiment: as above; type: cell-based; set-up: unit not given beside the values; conditions: BHI containing 0.1% casamino acids, 35-37° C., 20 h
Experimental: as §1, §2

[9] = test system: S. epidermidis 1228; experiment: as above; type: cell-based; set-up: unit not given beside the values; conditions: BHI containing 0.1% casamino acids, 35-37° C., 20 h
Experimental: as §1, §2

[10] = test system: S. epidermidis 700562; experiment: as above; type: cell-based; set-up: unit not given beside the values; conditions: BHI containing 0.1% casamino acids, 35-37° C., 20 h
Experimental: as §1, §2

[11] = test system: S. pneumoniae #1629; experiment: as above; type: cell-based; conditions: TSB containing 5% sheep blood, 35-37° C., 20 h
Experimental: as §1, §2

[12] = test system: S. pneumoniae 6303; experiment: as above; type: cell-based; conditions: TSB containing 5% sheep blood, 35-37° C., 20 h
Experimental: as §1, §2

[13] = S. aureus 13709 (first strain line)
[14] = S. aureus 13709 (third strain line)

| SMILES | MIC [1] | MIC [2, 13] | MIC [2, 14] | MIC [3] | MIC [4] | clearance ([5]; IV administration (2 mpk)) [mL/h/kg] | volume of distribution (Vss) ([5]; IV administration (2 mpk)) [L/kg] | half-life ([5]; IV administration (2 mpk)) [h] | % SC bioavailability ([5]; SC (10 mpk) vs IV (2 mpk)) [%] | half-life ([5]; SC administration (10 mpk)) [h] | systemic exposure ([5]; following IV (2 mpk) and SC (10 mpk) administration) | potency compared with vancomycin [6] | MIC [7] | MIC [8] | MIC [9] | MIC [10] | MIC [11] | MIC [12] |
| --- | --- | --- | --- | --- | --- | --- | --- | --- | --- | --- | --- | --- | --- | --- | --- | --- | --- | --- |
| C=C(C/C=C(\C)CCC=C(C)C)CCC(C)(C)/C=C/CC/C(C)=C/CO[C@@H](COP(=O)(O)O[C@H]1O[C@H](C(N)=O)[C@@](C)(O)[C@H](OC(N)=O)[C@H]1O[C@@H]1O[C@H](CO[C@@H]2O[C@H](CO)[C@@H](O)[C@H](O)[C@H]2O)[C@@H](O[C@@H]2O[C@H](C)[C@@H](O[C@@H]3O[C@H](C(=O)NC4=C(O)CCC4=O)[C@H](O)[C@H](O)[C@H]3O)[C@H](O)[C@H]2NC(C)=O)[C@H](O)[C@H]1NC(C)=O)C(=O)O [Moenomycin A] | 31 | 0.16 | 0.078 | 0.16 | 0.0098 | 3 | 0.5 | 209 | 89 | 180 | significant systemic exposure | 10-1000 times | – | – | – | – | – | – |
| CC(=O)NC1C(OC2C(COC3OC(CO)C(O)C(O)C3O)OC(OC3C(OP(=O)(O)OCC(OCCCCCCCCCCC(F)(F)C(F)(F)C(F)(F)C(F)(F)C(F)(F)C(F)(F)C(F)(F)C(F)(F)F)C(=O)O)OC(C(N)=O)C(C)(O)C3OC(N)=O)C(NC(C)=O)C2O)OC(C)C(OC2OC(C(=O)NC3=C(O)CCC3=O)C(O)C(O)C2O)C1O.N [1f, N1-[(2-Hydroxy-5-oxo-cyclopenten-1-yl)-(5S)-β-D-galactopyranuronamide]-(1→4)-2-acetamide-2,6-dideoxy-β-D-gluopyranosyl-(1→4)-[β-D-glucopyranosyl-(1→6)]-2-acetamido-2-deoxy-β-D-glucopyranosyl)-(1→2)-3-O-carbamoyl-1-O—{[(R)-2-carboxy-2-(11,11,12,12,13,13,14,14,15,15,16,16,17,17,18,18,18-heptadecafluoro-octadecan-1-yloxy)ethoxy]hydroxyphosphoryl}-4-C-methyl-α-D-glucopyranuronamide] | 250 | 3.9 | 2.0 | 2.0 | > 0.16 | – | – | – | – | – | – | – | 0.98 | 2.0 | 0.98 | 2.0 | 0.98 | 2.0 |
| CN[C@H](CC(C)C)C(=O)N[C@H]1C(=O)N[C@@H](CC(N)=O)C(=O)N[C@H]2C(=O)N[C@H]3C(=O)N[C@H](C(=O)N[C@H](C(=O)O)c4cc(O)cc(O)c4-c4cc3ccc4O)[C@H](O)c3ccc(c(Cl)c3)Oc3cc2cc(c3O[C@@H]2O[C@H](CO)[C@@H](O)[C@H](O)[C@H]2O[C@H]2C[C@](C)(N)[C@H](O)[C@H](C)O2)Oc2ccc(cc2Cl)[C@H]1O [Vancomycin•HCl, reference compound] | 250 | 3.9 | 2.0 | 3.9 | 0.49 | – | – | – | – | – | – | – | 3.9 | 2.0 | 2.0 | 3.9 | 0.49 | 0.49 |
| CCCCCCCCCCCCCCCCOC(COP(=O)(O)OC1OC(C(N)=O)C(C)(O)C(OC(N)=O)C1OC1OC(COC2OC(CO)C(O)C(O)C2O)C(OC2OC(C)C(OC3OC(C(=O)NC4=C(O)CCC4=O)C(O)C(O)C3O)C(O)C2NC(C)=O)C(O)C1NC(C)=O)C(=O)O.N [1g, N1-[(2-Hydroxy-5-oxo-cyclopenten-1-yl)-(5S)-β-D-galactopyranuronamide]-(1→4)-2-acetamide-2,6-dideoxy-β-D-gluopyranosyl-(1→4)-[β-D-glucopyranosyl-(1→6)]-2-acetamido-2-deoxy-β-D-glucopyranosyl)-(1→2)-3-O-carbamoyl-1-O—{[(R)-2-carboxy-2-(hexadecan-1-yloxy)ethoxy]hydroxyphosphoryl}-4-C-methyl-α-D-glucopyranuronamide] | 250 | 16 | 16 | 16 | 0.16 | – | – | – | – | – | – | – | 31 | 16 | 16 | 31 | 16 | 16 |
